Results reported in patent US20080161232A1, “C5a Receptor Antagonist” (JERINI AG, priority 2005, published 2008).
pIC50: −log10 of the molar value. Positions of bridges follow the written chain, without caps; N, C: chain ends. Non-standard residues stand in square brackets, D forms with d. Residues, ends and D or L forms follow the SMILES beside them. *: point of attachment. Phe(3-NO2) = N[C@@H](Cc1cccc([N+](=O)[O-])c1)C(=O)O; Phe(4-guanidino) = N=C(N)Nc1ccc(C[C@H](N)C(=O)O)cc1; Dihydroorotyl(S) = O=C1C[C@@H](C(=O)*)NC(=O)N1; Phe(3-Cl) = N[C@@H](Cc1cccc(Cl)c1)C(=O)O; Phe(3-OMe) = COc1cccc(C[C@H](N)C(=O)O)c1; Phe(4-NH2) = Nc1ccc(C[C@H](N)C(=O)O)cc1; NMe2Phe = CN(C)[C@@H](Cc1ccccc1)C(=O)*; Phe(3-F) = N[C@@H](Cc1cccc(F)c1)C(=O)O; Phe(4-F) = N[C@@H](Cc1ccc(F)cc1)C(=O)O; Bta = N[C@@H](Cc1csc2ccccc12)C(=O)O; d(hCha) = N[C@H](CCC1CCCCC1)C(=O)O; Hyp = O=C(O)[C@@H]1C[C@@H](O)CN1; d(hLeu) = CC(C)CC[C@@H](N)C(=O)O; 2Thi = N[C@@H](Cc1cccs1)C(=O)O; Cha = N[C@@H](CC1CCCCC1)C(=O)O; Cit = NC(=O)NCCC[C@H](N)C(=O)O; dCha = N[C@H](CC1CCCCC1)C(=O)O; Aic = NC1(C(=O)O)Cc2ccccc2C1; Chg = N[C@H](C(=O)O)C1CCCCC1; Phg = N[C@H](C(=O)O)c1ccccc1; Pip = O=C(O)[C@@H]1CCCCN1; Nle = CCCC[C@H](N)C(=O)O; Orn = NCCC[C@H](N)C(=O)O; Aze = O=C(O)[C@@H]1CCN1; X18 = c1cc(C*)ccn1; tBu = CC(C)(C)*

Target: T1, human C5aR(CD88) (Homo sapiens, UniProt P21730)
T1 construct: expressed in transfected cells; host or cells: rat basophilic leukemia cells (RBL)
T1 sequence (P21730 1-350): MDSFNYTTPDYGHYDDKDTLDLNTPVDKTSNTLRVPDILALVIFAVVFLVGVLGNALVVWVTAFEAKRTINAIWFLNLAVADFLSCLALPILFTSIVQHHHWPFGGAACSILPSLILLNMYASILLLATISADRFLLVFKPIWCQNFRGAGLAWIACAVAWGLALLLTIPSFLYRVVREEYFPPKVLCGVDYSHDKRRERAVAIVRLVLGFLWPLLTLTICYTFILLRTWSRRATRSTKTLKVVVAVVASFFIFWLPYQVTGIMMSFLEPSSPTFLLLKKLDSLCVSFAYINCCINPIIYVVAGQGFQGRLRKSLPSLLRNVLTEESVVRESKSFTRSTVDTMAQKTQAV
Assay: Determination of the IC50 value in an enzyme release assay (functional assay, antagonistic activity)
Type: cell-based
Details: antagonistic activity; IC50 group in enzyme release assay, RBL cells expressing human C5aR(CD88); read-out: activity (group)

| pIC50 | SMILES |
| --- | --- |
| 5.70 to 6.70 | CC(=O)N[C@@H](Cc1ccccc1)C(=O)N[C@H]1CCCNC(=O)[C@H](CSCc2ccncc2)NC(=O)[C@H](Cc2c[nH]c3ccccc23)NC(=O)[C@@H](CC2CCCCC2)NC(=O)[C@@H]2CCCN2C1=O [compound 15] (Ac-F[Orn]P[dCha]WC(X18); lactam 2-C) |
| 6.70 to 7.30 | CC(=O)N[C@H](C(=O)N[C@@H](CCCN)C(=O)N1CCC[C@H]1C(=O)N[C@H](CC1CCCCC1)C(=O)N[C@@H](Cc1csc2ccccc12)C(=O)N[C@@H](Cc1ccccc1)C(N)=O)c1ccccc1 [Compound 126, Ac-Phg-Orn-Pro-cha-Bta-Phe-NH2] (Ac-[Phg][Orn]P[dCha][Bta]F-NH2) |
| 7.30 to 7.70 | CC(=O)N[C@@H](CCCNC(N)=O)C(=O)N[C@@H](Cc1ccccc1)C(=O)N[C@@H](CCCN)C(=O)N1CC[C@H]1C(=O)N[C@H](CC1CCCCC1)C(=O)N[C@@H](Cc1csc2ccccc12)C(=O)N[C@@H](Cc1ccccc1)C(N)=O [Compound 153, Ac-Cit-Phe-Orn-Aze-cha-Bta-Phe-NH2] (Ac-[Cit]F[Orn][Aze][dCha][Bta]F-NH2) |
| 5.70 to 6.70 | CC(=O)N[C@@H](Cc1ccccc1)C(=O)N[C@@H](CCC(=O)O)C(=O)N1CCC[C@H]1C(=O)N[C@H](CC1CCCCC1)C(=O)N[C@@H](Cc1c[nH]c2ccccc12)C(=O)N[C@@H](Cc1ccccc1)C(N)=O [Compound 91, Ac-Phe-Glu-Pro-cha-Trp-Phe-NH2] (Ac-FEP[dCha]WF-NH2) |
| 5.70 to 6.70 | CC(=O)N[C@@H](Cc1ccccc1)C(=O)N[C@H]1CCCNC(=O)[C@H](CCCNC2=NCCN2)NC(=O)[C@H](Cc2c[nH]c3ccccc23)NC(=O)[C@@H](CC2CCCCC2)NC(=O)[C@@H]2CCCN2C1=O [Compound 7, Ac-Phe-[Orn-Pro-cha-Trp-Arg(CH2CH2)]] |
| 7.30 to 7.70 | CCCC[C@@H]1NC(=O)[C@H](Cc2c[nH]c3ccccc23)NC(=O)[C@@H](CC2CCCCC2)NC(=O)[C@@H]2CCCN2C(=O)[C@@H](NCc2ccccc2)CCCNC1=O [Compound 56, Ph-CH2-[Orn-Pro-cha-Trp-Nle]] |
| 6.70 to 7.30 | CC(=O)N[C@@H](Cc1ccc(NC(=N)N)cc1)C(=O)N[C@@H](Cc1ccccc1)C(=O)N[C@@H](CCCN)C(=O)N1CC[C@H]1C(=O)N[C@H](CC1CCCCC1)C(=O)N[C@@H](Cc1csc2ccccc12)C(=O)N[C@@H](Cc1ccccc1)C(N)=O [Compound 140, Ac-Guf-Phe-Orn-Aze-cha-Bta-Phe-NH2] (Ac-[Phe(4-guanidino)]F[Orn][Aze][dCha][Bta]F-NH2) |
| 6.70 to 7.30 | CCCC[C@@H]1NC(=O)[C@H](Cc2ccc(F)cc2)NC(=O)[C@@H](CC2CCCCC2)NC(=O)[C@@H]2CCCN2C(=O)[C@@H](NC(=O)[C@@H](N)Cc2ccccc2)CCCNC1=O [Compound 374, H-Phe-[Orn-Pro-cha-Pff-Nle]] (H-F[Orn]P[dCha][Phe(4-F)][Nle]; lactam 2-C) |
| 6.70 to 7.30 | CCCC[C@@H]1NC(=O)[C@H](Cc2ccc(F)cc2)NC(=O)[C@@H](CCC(C)C)NC(=O)[C@@H]2C[C@@H](O)CN2C(=O)[C@@H](NC(=O)[C@@H](N)Cc2ccccc2)CCCCNC1=O [Compound 353, H-Phe-[Lys-Hyp-hle-Pff-Nle]] (H-FK[Hyp][d(hLeu)][Phe(4-F)][Nle]; lactam 2-C) |
| 7.30 to 7.70 | CC(=O)N[C@@H](Cc1ccccc1)C(=O)N[C@@H](CCCN)C(=O)N1CCC[C@H]1C(=O)N[C@H](CCC(C)C)C(=O)N[C@@H](Cc1cccc(Cl)c1)C(=O)N[C@@H](CC1CCCCC1)C(N)=O [Compound 289, Ac-Phe-Orn-Pro-hle-Mcf-Cha-NH2] (Ac-F[Orn]P[d(hLeu)][Phe(3-Cl)][Cha]-NH2) |
| 6.70 to 7.30 | COc1cccc(C[C@H](NC(=O)[C@H](Cc2ccc(F)cc2)NC(=O)[C@@H](CCC(C)C)NC(=O)[C@@H]2CCCN2C(=O)[C@H](CCCN)NC(=O)[C@H](Cc2ccccc2)NC(C)=O)C(N)=O)c1 [Compound 300, Ac-Phe-Orn-Pro-hle-Pff-Mmy-NH2] (Ac-F[Orn]P[d(hLeu)][Phe(4-F)][Phe(3-OMe)]-NH2) |
| 7.30 to 7.70 | CC(C)CC[C@@H](NC(=O)[C@@H]1CCCN1C(=O)[C@H](CCCN)NC(=O)[C@H](Cc1ccccc1)NC(=O)[C@@H]1CC(=O)NC(=O)N1)C(=O)N[C@@H](Cc1csc2ccccc12)C(=O)N[C@@H](Cc1ccccc1)C(N)=O [Compound 350, Hoo-Phe-Orn-Pro-hle-Bta-Phe-NH2] ({Dihydroorotyl(S)}-F[Orn]P[d(hLeu)][Bta]F-NH2) |
| 6.70 to 7.30 | CC(=O)N[C@@H](Cc1ccccc1)C(=O)N[C@@H](CCCN)C(=O)N1CCC[C@H]1C(=O)N[C@H](CCC(C)C)C(=O)N[C@@H](Cc1csc2ccccc12)C(=O)N[C@H](C(N)=O)C1CCCCC1 [Compound 275, Ac-Phe-Orn-Pro-hle-Bta-Chg-NH2] (Ac-F[Orn]P[d(hLeu)][Bta][Chg]-NH2) |
| 6.70 to 7.30 | CC(=O)N[C@@H](Cc1ccccc1)C(=O)N[C@@H](Cc1c[nH]cn1)C(=O)N1CCC[C@H]1C(=O)N[C@H](CC1CCCCC1)C(=O)N[C@@H](Cc1csc2ccccc12)C(=O)N[C@@H](Cc1ccccc1)C(N)=O [Compound 230, Ac-Phe-His-Pro-cha-Bta-Phe-NH2] (Ac-FHP[dCha][Bta]F-NH2) |
| 6.70 to 7.30 | CC(=O)N[C@@H](Cc1ccccc1)C(=O)N[C@@H](CCCN)C(=O)N1CCC[C@H]1C(=O)N[C@H](CCC(C)C)C(=O)N[C@@H](Cc1ccc(F)cc1)C(=O)N[C@@H](CC1CCCCC1)C(N)=O [Compound 298, Ac-Phe-Orn-Pro-hle-Pff-Cha-NH2] (Ac-F[Orn]P[d(hLeu)][Phe(4-F)][Cha]-NH2) |
| 7.30 to 7.70 | CC(=O)NCC(=O)N[C@@H](Cc1cccs1)C(=O)N[C@@H](CCCN)C(=O)N1CC[C@H]1C(=O)N[C@H](CC1CCCCC1)C(=O)N[C@@H](Cc1csc2ccccc12)C(=O)N[C@@H](Cc1ccccc1)C(N)=O [Compound 157, Ac-Gly-Thi-Orn-Aze-cha-Bta-Phe-NH2] (Ac-G[2Thi][Orn][Aze][dCha][Bta]F-NH2) |
| 6.70 to 7.30 | CC(=O)N[C@@H](Cc1cccc(F)c1)C(=O)N[C@@H](CCCN)C(=O)N1CCC[C@H]1C(=O)N[C@H](CCC(C)C)C(=O)N[C@@H](Cc1cccc(Cl)c1)C(=O)N[C@@H](Cc1cccc(F)c1)C(N)=O [Compound 163, Ac-Mff-Orn-Pro-hle-Mcf-Mff-NH2] (Ac-[Phe(3-F)][Orn]P[d(hLeu)][Phe(3-Cl)][Phe(3-F)]-NH2) |
| 6.70 to 7.30 | CCCC[C@@H]1NC(=O)[C@H](Cc2c[nH]c3ccccc23)NC(=O)[C@@H](CC2CCCCC2)NC(=O)[C@@H]2CCCN2C(=O)[C@@H](NC(=O)[C@H](Cc2ccccc2)N(C)C)CCCNC1=O [Compound 331, Fbp-[Orn-Pro-cha-Trp-Nle]] (NMe2Phe-[Orn]P[dCha]W[Nle]; lactam 1-C) |
| 6.70 to 7.30 | CC(=O)NCC(=O)N[C@@H](Cc1ccccc1)C(=O)N[C@@H](CCCN)C(=O)N1CC[C@H]1C(=O)N[C@H](CCC1CCCCC1)C(=O)N[C@@H](Cc1csc2ccccc12)C(=O)N[C@@H](Cc1ccccc1)C(N)=O [Compound 156, Ac-Gly-Phe-Orn-Aze-hch-Bta-Phe-NH2] (Ac-GF[Orn][Aze][d(hCha)][Bta]F-NH2) |

| SMILES | pIC50 |
| --- | --- |
| CC(=O)N[C@@H](Cc1ccccc1)C(=O)N[C@H]1CCCNC(=O)[C@H](Cc2ccccc2)NC(=O)[C@H](Cc2ccc(F)cc2)NC(=O)[C@@H](CCC(C)C)NC(=O)[C@@H]2CCCN2C1=O [Compound 198, Ac-Phe-[Orn-Pro-hle-Pff-Phe]] (Ac-F[Orn]P[d(hLeu)][Phe(4-F)]F; lactam 2-C) | 6.70 to 7.30 |
| CC(=O)N[C@@H](Cc1ccccc1)C(=O)N[C@@H](CCCN)C(=O)N1CCC[C@H]1C(=O)N[C@H](CCC(C)C)C(=O)N[C@@H](Cc1cccc([N+](=O)[O-])c1)C(=O)N[C@@H](Cc1ccccc1)C(N)=O [Compound 287, Ac-Phe-Orn-Pro-hle-Egz-Phe-NH2] (Ac-F[Orn]P[d(hLeu)][Phe(3-NO2)]F-NH2) | 6.70 to 7.30 |
| CC(C)CC[C@H]1NC(=O)[C@@H]2C[C@@H](O)CN2C(=O)[C@@H](NC(=O)[C@@H](N)Cc2ccccc2)CCCNC(=O)[C@H](Cc2ccccc2)NC(=O)[C@H](Cc2c[nH]c3ccccc23)NC1=O [Compound 371, H-Phe-[Orn-Hyp-hle-Trp-Phe]] (H-F[Orn][Hyp][d(hLeu)]WF; lactam 2-C) | 7.30 to 7.70 |
| CC(=O)N[C@@H](Cc1ccccc1)C(=O)N[C@@H](CCCN)C(=O)N1CCCC[C@H]1C(=O)N[C@H](CC1CCCCC1)C(=O)N[C@@H](Cc1c[nH]c2ccccc12)C(=O)N[C@@H](Cc1ccccc1)C(=O)O [Compound 115, Ac-Phe-Orn-Pip-cha-Trp-Phe-OH] (Ac-F[Orn][Pip][dCha]WF-OH) | 5.70 to 6.70 |
| CC(=O)N[C@@H](Cc1ccccc1)C(=O)N[C@@H](CCCN)C(=O)N1CCC[C@H]1C(=O)N[C@H](CSC(C)(C)C)C(=O)N[C@@H](Cc1csc2ccccc12)C(=O)N[C@@H](Cc1ccccc1)C(N)=O [Compound 263, Ac-Phe-Orn-Pro-ctb-Bta-Phe-NH2] (Ac-F[Orn]P[dC](tBu)[Bta]F-NH2) | 7.30 to 7.70 |
| CC(=O)N[C@@H](Cc1ccccc1)C(=O)N[C@@H](Cc1ccc(N)cc1)C(=O)N1CCC[C@H]1C(=O)N[C@H](CC1CCCCC1)C(=O)N[C@@H](Cc1csc2ccccc12)C(=O)N[C@@H](Cc1ccccc1)C(N)=O [Compound 127, Ac-Phe-Paf-Pro-cha-Bta-Phe-NH2] (Ac-F[Phe(4-NH2)]P[dCha][Bta]F-NH2) | 5.70 to 6.70 |
| CC(=O)N[C@@H](Cc1ccccc1)C(=O)N[C@@H](CCCN)C(=O)N1CCC[C@H]1C(=O)N[C@H](CCC(C)C)C(=O)N[C@@H](Cc1csc2ccccc12)C(=O)NC1(C(N)=O)Cc2ccccc2C1 [Compound 273, Ac-Phe-Orn-Pro-hle-Bta-Aic-NH2] (Ac-F[Orn]P[d(hLeu)][Bta][Aic]-NH2) | 6.70 to 7.30 |
| CCCC[C@@H]1NC(=O)[C@H](Cc2ccc(F)cc2)NC(=O)[C@@H](CCC(C)C)NC(=O)[C@@H]2C[C@@H](O)CN2C(=O)[C@@H](NC(=O)[C@H](Cc2ccccc2)NC(C)=O)CCCNC1=O [Compound 179, Ac-Phe-[Orn-Hyp-hle-Pff-Nle]] (Ac-F[Orn][Hyp][d(hLeu)][Phe(4-F)][Nle]; lactam 2-C) | 6.70 to 7.30 |
